Where a SMILES comes first, the peptide text is derived from it.
Biological target: HLA B*1501 (Homo sapiens, UniProt P01889, A329T/A93T/A95T/C349S/D201E/D98Y/E187L/E204Q/E69M/E70A/K202T/N87E/Q94N/R155S/R180W/S121R/S35A/S48A/V306I/V36M/Y140S/Y91S)
Assay: biochemical
Assay type: binding

CC[C@H](C)[C@H](NC(=O)CNC(=O)[C@@H](N)CO)C(=O)NCC(=O)N[C@H](C(=O)N[C@@H](Cc1ccccc1)C(=O)N[C@@H](CC(C)C)C(=O)N[C@@H](Cc1c[nH]cn1)C(=O)N[C@@H](Cc1ccc(O)cc1)C(=O)O)[C@@H](C)O [3102.0852] (H-SGIGTFLHY-OH)
IC50: 23 nM

CC[C@H](C)[C@H](NC(=O)[C@@H](N)CO)C(=O)N[C@@H](CS)C(=O)N[C@@H](CO)C(=O)N[C@@H](CCCCN)C(=O)N[C@@H](CO)C(=O)N[C@@H](CC(N)=O)C(=O)N1CCC[C@H]1C(=O)N[C@@H](Cc1ccccc1)C(=O)O [3102.0855] (H-SICSKSNPF-OH)
IC50: 39 nM

CSCC[C@H](NC(=O)[C@H](CCCCN)NC(=O)[C@H](CCCCN)NC(=O)[C@H](Cc1ccc(O)cc1)NC(=O)[C@@H](NC(=O)[C@@H](N)CC(C)C)C(C)C)C(=O)N[C@@H](CCC(N)=O)C(=O)N[C@@H](CO)C(=O)N[C@@H](Cc1ccc(O)cc1)C(=O)O [3102.0856] (H-LVYKKMQSY-OH)
IC50: 46 nM

CC[C@H](C)[C@H](NC(=O)[C@H](CS)NC(=O)[C@H](CCCNC(=N)N)NC(=O)[C@H](Cc1c[nH]cn1)NC(=O)[C@H](CC(C)C)NC(=O)[C@@H](N)CC(C)C)C(=O)N[C@@H](Cc1ccc(O)cc1)C(=O)N[C@@H](Cc1c[nH]cn1)C(=O)N[C@@H](Cc1ccc(O)cc1)C(=O)O [3102.0866] (H-LLHRCIYHY-OH)
IC50: 43 nM

CC[C@H](C)[C@H](N)C(=O)N[C@@H](CO)C(=O)N[C@H](C(=O)N[C@@H](CCCCN)C(=O)N[C@@H](CC(C)C)C(=O)N[C@@H](CO)C(=O)N[C@@H](CS)C(=O)N[C@@H](Cc1c[nH]cn1)C(=O)N[C@@H](Cc1ccc(O)cc1)C(=O)O)[C@@H](C)O [3102.0872] (H-ISTKLSCHY-OH)
IC50: 18 nM

CC(C)C[C@H](NC(=O)[C@H](CCCCN)NC(=O)[C@H](CS)NC(=O)[C@H](CC(C)C)NC(=O)[C@@H](N)CO)C(=O)N[C@@H](CC(N)=O)C(=O)N[C@@H](CC(N)=O)C(=O)N[C@H](C(=O)N[C@@H](Cc1ccccc1)C(=O)O)C(C)C [3102.0874] (H-SLCKLNNVF-OH)
IC50: 16 nM

CC[C@H](C)[C@H](NC(=O)[C@H](C)NC(=O)[C@H](CC(C)C)NC(=O)[C@@H](N)CC(C)C)C(=O)N[C@@H](CO)C(=O)N[C@@H](C)C(=O)N[C@H](C(=O)N[C@@H](Cc1ccc(O)cc1)C(=O)N[C@@H](Cc1ccccc1)C(=O)O)C(C)C [3102.0875] (H-LLAISAVYF-OH)
IC50: 32 nM

CC[C@H](C)[C@H](NC(=O)[C@H](CC(N)=O)NC(=O)[C@@H]1CCCN1C(=O)[C@H](CS)NC(=O)[C@@H](NC(=O)[C@@H](N)CCSC)C(C)C)C(=O)N[C@@H](CC(N)=O)C(=O)N[C@@H](C)C(=O)N[C@@H](Cc1ccccc1)C(=O)O [3102.0876] (H-MVCPNINAF-OH)
IC50: 22 nM

CSCC[C@H](NC(=O)[C@H](Cc1ccc(O)cc1)NC(=O)[C@H](CO)NC(=O)[C@H](CCC(=O)O)NC(=O)[C@H](Cc1ccc(O)cc1)NC(=O)[C@H](CS)NC(=O)[C@H](Cc1c[nH]cn1)NC(=O)[C@H](CC(C)C)NC(=O)[C@@H](N)CCSC)C(=O)O [3102.0879] (H-MLHCYESYM-OH)
IC50: 97 nM

CSCC[C@H](NC(=O)[C@H](Cc1c[nH]cn1)NC(=O)[C@H](CS)NC(=O)[C@@H](NC(=O)[C@H](CC(N)=O)NC(=O)[C@H](CC(N)=O)NC(=O)[C@@H](NC(=O)[C@H](CO)NC(=O)[C@@H](N)C(C)C)C(C)C)C(C)C)C(=O)O [3102.0880] (H-VSVNNVCHM-OH)
IC50: 14 nM

CSCC[C@H](NC(=O)[C@@H](N)C(C)C)C(=O)N[C@H](C(=O)N[C@@H](CCCCN)C(=O)N[C@@H](Cc1c[nH]c2ccccc12)C(=O)N[C@@H](CS)C(=O)N[C@@H](C)C(=O)N1CCC[C@H]1C(=O)N[C@@H](Cc1ccccc1)C(=O)O)[C@@H](C)O [3102.0886] (H-VMTKWCAPF-OH)
IC50: 1.9 nM

CSCC[C@H](NC(=O)[C@H](C)NC(=O)[C@H](CCCCN)NC(=O)[C@H](Cc1ccccc1)NC(=O)[C@@H](NC(=O)[C@@H](N)CC(N)=O)C(C)C)C(=O)N[C@@H](CCC(=O)O)C(=O)N[C@H](C(=O)N[C@@H](Cc1ccccc1)C(=O)O)[C@@H](C)O [3102.0887] (H-NVFKAMETF-OH)
IC50: 23 nM

CC[C@H](C)[C@H](NC(=O)[C@H](CCC(=O)O)NC(=O)[C@@H](N)CO)C(=O)N[C@@H](CCCNC(=N)N)C(=O)N[C@@H](Cc1c[nH]c2ccccc12)C(=O)N[C@@H](CCC(=O)O)C(=O)N[C@@H](CCC(=O)O)C(=O)N[C@@H](CO)C(=O)N[C@@H](Cc1ccccc1)C(=O)O [3102.0890] (H-SEIRWEESF-OH)
IC50: 47 nM

CC[C@H](C)[C@H](N)C(=O)N[C@H](C(=O)N[C@H](C(=O)N1CCC[C@H]1C(=O)N[C@@H](Cc1ccccc1)C(=O)N[C@H](C(=O)N[C@@H](C)C(=O)N[C@@H](Cc1ccc(O)cc1)C(=O)N[C@@H](Cc1ccccc1)C(=O)O)[C@@H](C)CC)[C@@H](C)CC)[C@@H](C)CC [3102.0892] (H-IIIPFIAYF-OH)
IC50: 1.6 nM

CSCC[C@H](N)C(=O)N[C@H](C(=O)N[C@@H](Cc1ccc(O)cc1)C(=O)N[C@@H](CCCCN)C(=O)N[C@@H](CC(C)C)C(=O)N[C@H](C(=O)N[C@@H](CC(C)C)C(=O)N[C@@H](CC(C)C)C(=O)N[C@@H](Cc1ccccc1)C(=O)O)C(C)C)C(C)C [3102.0893] (H-MVYKLVLLF-OH)
IC50: 71 nM

CC[C@H](C)[C@H](NC(=O)[C@H](Cc1c[nH]cn1)NC(=O)[C@H](CC(=O)O)NC(=O)[C@H](Cc1c[nH]cn1)NC(=O)[C@H](CO)NC(=O)[C@@H](N)Cc1ccccc1)C(=O)NCC(=O)N[C@@H](Cc1c[nH]cn1)C(=O)NCC(=O)O [3102.0897] (H-FSHDHIGHG-OH)
IC50: 32 nM

CC[C@H](C)[C@H](NC(=O)[C@H](CCSC)NC(=O)[C@@H](N)CCSC)C(=O)N[C@@H](CC(=O)O)C(=O)N[C@@H](CC(=O)O)C(=O)N[C@@H](Cc1ccccc1)C(=O)NCC(=O)N[C@H](C(=O)N[C@@H](C)C(=O)O)[C@@H](C)O [3102.0898] (H-MMIDDFGTA-OH)
IC50: 7.6 nM

CC[C@H](C)[C@H](NC(=O)[C@@H](N)CC(C)C)C(=O)N[C@@H](CC(N)=O)C(=O)N[C@@H](CC(N)=O)C(=O)NCC(=O)N[C@@H](CCCCN)C(=O)N[C@@H](CS)C(=O)N[C@H](C(=O)N[C@@H](Cc1ccccc1)C(=O)O)[C@@H](C)O [3102.0899] (H-LINNGKCTF-OH)
IC50: 62 nM

CC[C@H](C)[C@H](N)C(=O)N[C@@H](CC(C)C)C(=O)N[C@@H](CCCCN)C(=O)N[C@@H](CCCCN)C(=O)N[C@@H](CC(C)C)C(=O)N[C@@H](CO)C(=O)N1CCC[C@H]1C(=O)N[C@@H](Cc1ccc(O)cc1)C(=O)N[C@@H](Cc1ccccc1)C(=O)O [3102.0903] (H-ILKKLSPYF-OH)
IC50: 1.2 nM

CC[C@H](C)[C@H](NC(=O)[C@H](C)NC(=O)[C@H](CC(N)=O)NC(=O)[C@H](Cc1ccccc1)NC(=O)[C@H](CC(C)C)NC(=O)[C@@H](N)Cc1ccc(O)cc1)C(=O)N[C@@H](CCC(=O)O)C(=O)N[C@H](C(=O)N[C@@H](CCSC)C(=O)O)[C@@H](C)O [3102.0905] (H-YLFNAIETM-OH)
IC50: 1.4 nM

CSCC[C@H](N)C(=O)N[C@@H](Cc1ccc(O)cc1)C(=O)N[C@@H](CCCCN)C(=O)N[C@@H](CCCCN)C(=O)N[C@@H](C)C(=O)N[C@@H](CCC(=O)O)C(=O)N[C@@H](C)C(=O)N[C@@H](CO)C(=O)N[C@@H](Cc1ccccc1)C(=O)O [3102.0906] (H-MYKKAEASF-OH)
IC50: 69 nM
